Laboratory results published in PubChem BioAssay (NCI).
Values joined by “and” are separate entries in the source; they are usually repeats but may differ in a detail not shown here. Equal entries are not always repeated.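 48-hour exposure; five concentrations; linearly interpolated endpoints. GI50: concentration for 50% inhibition of growth. Definition used: TGI = concentration required for complete inhibition of growth.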

Legend:
Assay in all cases: DTP human tumour cell line panel, 48 h
KM12 colon = system: KM12 colon
A549 NSCLC = system: A549 NSCLC
T-47D breast = system: T-47D breast
RPMI-8226 leukemia = system: RPMI-8226 leukemia
BT-549 breast = system: BT-549 breast
SNB-19 CNS = system: SNB-19 CNS
NCI-H522 lung = system: NCI-H522 lung
A498 renal = system: A498 renal
SR leukemia = system: SR leukemia
HOP-62 NSCLC = system: HOP-62 NSCLC

Compound	GI50 (KM12 colon)	TGI (KM12 colon)	GI50 (A549 NSCLC)	TGI (A549 NSCLC)	GI50 (T-47D breast)	TGI (T-47D breast)	GI50 (RPMI-8226 leukemia)	TGI (RPMI-8226 leukemia)	GI50 (BT-549 breast)	TGI (BT-549 breast)	GI50 (SNB-19 CNS)	TGI (SNB-19 CNS)	GI50 (NCI-H522 lung)	TGI (NCI-H522 lung)	GI50 (A498 renal)	TGI (A498 renal)	GI50 (SR leukemia)	TGI (SR leukemia)	GI50 (HOP-62 NSCLC)	TGI (HOP-62 NSCLC)
COc1ccc2c(c1)NC1=C(C(=O)OC1)C2c1cc(OC)c(OC)c(OC)c1 (configuration not stated)	< 0.01 µM	> 100 µM	< 0.01 µM	> 100 µM	25.6 µM	> 100 µM	< 0.01 µM	> 100 µM	< 0.01 µM	< 0.01 µM	< 0.01 µM	> 100 µM	< 0.01 µM	< 0.01 µM	< 0.01 µM	< 0.01 µM	< 0.01 µM	> 100 µM	< 0.01 µM	42.5 µM
Cc1nnc(-c2ccc(C)c(-c3ccc(C(=O)Nc4cccc(C#N)c4)cc3)c2)o1	> 25 µM	> 25 µM	> 25 µM	> 25 µM	> 15.9 µM	> 25 µM	> 25 µM	> 25 µM	> 25 µM	> 25 µM	> 25 µM	> 25 µM	> 25 µM	> 25 µM	> 25 µM	> 25 µM	> 25 µM	> 25 µM	> 25 µM	> 25 µM
C=CC(=O)N1CCC(Oc2cc3c(Nc4ccc(Cl)c(Cl)c4F)ncnc3cc2OC)CC1	7.96 µM and 4.12 µM	27.1 µM and > 10 µM	3.12 µM and 1.6 µM	19.9 µM and > 10 µM	< 0.01 µM and 0.0178 µM	25.9 µM and > 10 µM	6.49 µM and 3.93 µM	42.6 µM and > 10 µM	1.9 µM and 2.23 µM	13.4 µM and > 10 µM	8.97 µM and 6.52 µM	23.9 µM and > 10 µM	< 0.01 µM and 0.00141 µM	4.19 µM and 0.782 µM	0.365 µM and 0.179 µM	1.92 µM and 0.834 µM	2.27 µM and 2.8 µM	10.9 µM and > 10 µM	3.88 µM and 3.1 µM	25.1 µM and > 10 µM
NCCCNCCS		> 100 µM		> 100 µM		> 100 µM	> 100 µM and 20.6 µM	> 100 µM		> 100 µM		> 100 µM		> 100 µM		> 100 µM	> 100 µM and 37 µM	> 100 µM		> 100 µM
Cc1ccc(C2=C(c3ccc(C)cc3)C3(c4ccc(C)cc4)C4C(=O)OC(=O)C4C2(c2ccc(C)cc2)S3=O)cc1 (configuration not stated)	22.9 µM	76.1 µM	32 µM	> 100 µM	> 100 µM	> 100 µM	21.2 µM	89.5 µM	23.9 µM	> 100 µM	20.9 µM	> 100 µM	34 µM	> 100 µM	21.9 µM	63.4 µM	25.9 µM	> 100 µM	16.4 µM	42.5 µM
CCN1C(=O)c2ccc3c4c(ccc(c24)C1=O)C(=O)N(CCCNCc1ccccc1OC)C3=O	0.63 µM	3.75 µM	0.78 µM	2.49 µM	1 µM	3.29 µM	1.64 µM	5.53 µM	1.48 µM	2.94 µM	1.33 µM	2.97 µM	1.19 µM	2.68 µM	0.383 µM	1.99 µM	0.466 µM	6.3 µM	0.925 µM	2.78 µM
